Data as given in ChEMBL document CHEMBL5500352, “ML162 derivatives incorporating a naphthoquinone unit as ferroptosis/apoptosis inducers: Design, synthesis, anti-cancer activity, and drug-resistance reversal evaluation” (Eur J Med Chem, 2024).
Active and inactive are the calls of the source. The rule behind the calls is not given here.

Key:
HT-1080 [1] = assay: Induction of apoptosis in human HT-1080 cells assessed as early apoptotic cells at 4 uM incubated for 24 hrs by Annexin-V FITC/PI staining based flow cytometry analysis (reference value: 1.85%); assay type: functional
HT-1080 [2] = assay: Cytotoxicity against human HT-1080 cells incubated for 48 hrs by CCK-8 assay; assay type: functional, cell-based; conditions: HT-1080, 48 h
[3] = Toxicity in BALB/c nude mouse xenografted with human HT-1080 cells assessed as change in liver morphology at 20 to 40 mg/kg, ip administered once daily for 19 days and measured every 2 days by H and E staining based assay; assay type: organism-based; conditions: in vivo, 456 h, dose 20-40 mg/kg, time 19 day
[4] = Toxicity in BALB/c nude mouse xenografted with human HT-1080 cells assessed as change in kidney morphology at 20 to 40 mg/kg, ip administered once daily for 19 days and measured every 2 days by H and E staining based assay; assay type: organism-based; conditions: in vivo, 456 h, dose 20-40 mg/kg, time 19 day
HT-1080 [5] = assay: Induction of apoptosis in human HT-1080 cells assessed as necrotic cells at 4 uM incubated for 24 hrs by Annexin-V FITC/PI staining based flow cytometry analysis (reference value: 3.98%); assay type: functional
HT-1080 [6] = assay: Antitumor activity against human HT-1080 cells xenografted in ip dosed BALB/c nude mouse assessed as reduction in Bcl-2 level administered once daily for 19 days and measured every 2 days by immunohistochemistry assay; assay type: functional, organism-based; conditions: dose 20-40 mg/kg, time 19.0 day
HT-1080 [7] = assay: Antitumor activity against human HT-1080 cells xenografted in ip dosed BALB/c nude mouse assessed as increase in 4-HNE level administered once daily for 19 days and measured every 2 days by immunohistochemistry assay; assay type: functional, organism-based; conditions: dose 20-40 mg/kg, time 19.0 day
HT-1080 [8] = assay: Induction of apoptosis in human HT-1080 cells assessed as decrease in Bcl-2 level after 24 hrs by Western blotting analysis; assay type: functional, cell-based; conditions: dose 0.5-4 µM
HT-1080 [9] = assay: Induction of apoptosis in human HT-1080 cells assessed as early apoptosis at 1 to 2 uM incubated for 48 hrs by Annexin-V FITC/PI staining based flow cytometry analysis; assay type: functional, cell-based; conditions: dose 1-2 µM
HT-1080 [10] = assay: Induction of ferroptosis in human HT-1080 cells assessed as appearance of broken outer membrane of mitochondria at 4 uM after 24 hrs by transmission electron microscope analysis; assay type: functional, cell-based
[11] = test system: AMG 510-resistant MIA PaCa-2; assay: Cytotoxicity against human AAMG 510-resistant MIA PaCa-2 cells at 10 uM; assay type: functional, cell-based
HT-1080 [12] = assay: Induction of apoptosis in human HT-1080 cells assessed as late apoptotic cells at 2 uM incubated for 24 hrs by Annexin-V FITC/PI staining based flow cytometry analysis (reference value: 1.66%); assay type: functional
HT-1080 [13] = assay: Induction of apoptosis in human HT-1080 cells assessed as viable cells at 4 uM incubated for 24 hrs by Annexin-V FITC/PI staining based flow cytometry analysis (reference value: 92.5%); assay type: functional; conditions: read-out: Activity
HT-1080 [14] = assay: Induction of ferroptosis in human HT-1080 cells assessed as accumulation of intracellular ROS level at 4 uM after 12 hrs by DCFH-DA staining based confocal laser scanning microscopy analysis; assay type: functional, cell-based
[15] = molecular target: T1, Phospholipid hydroperoxide glutathione peroxidase GPX4 (Homo sapiens) (UniProt P36969); assay: Induction of GPX4 degradation in human HT-1080 cells at 2 uM after 24 hrs by Western blotting assay; assay type: cell-based
T1 sequence (whole entry): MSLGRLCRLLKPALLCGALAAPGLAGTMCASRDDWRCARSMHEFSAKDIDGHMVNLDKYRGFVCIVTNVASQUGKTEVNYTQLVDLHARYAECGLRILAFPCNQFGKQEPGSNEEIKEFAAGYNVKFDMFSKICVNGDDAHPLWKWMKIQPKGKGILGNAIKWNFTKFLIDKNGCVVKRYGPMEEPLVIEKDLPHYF

HT-1080 [16] = assay: Induction of apoptosis in human HT-1080 cells assessed as late apoptotic cells at 4 uM incubated for 24 hrs by Annexin-V FITC/PI staining based flow cytometry analysis (reference value: 1.66%); assay type: functional
HT-1080 [17] = assay: Induction of ferroptosis in human HT-1080 cells assessed as decrease in mitochondrial crests at 4 uM after 24 hrs by transmission electron microscope analysis; assay type: functional, cell-based

SMILES: O=C(CCCCCNC1=CC(=O)c2ccccc2C1=O)Nc1ccc(N(C(=O)CCl)C(C(=O)NCCc2ccccc2)c2cccs2)cc1 (configuration not stated)
- Activity (HT-1080 [1]): 9.04%
- IC50 (HT-1080 [2]): 1600 nM
- Activity [3]: Non-Toxic
- Activity [4]: Non-Toxic
- Activity (HT-1080 [5]): 3.03%
- Activity (HT-1080 [6]): Dose-Dependent Effect
- Activity (HT-1080 [7]): Dose-Dependent Effect
- Activity (HT-1080 [8]): Dose-Dependent Effect
- Activity (HT-1080 [9]): Active
- Activity (HT-1080 [10]): Active
- Activity [11]: Active
- Activity (HT-1080 [12]): 4.75%
- viability at 4 µM (HT-1080 [13]): 79.9%
- Activity (HT-1080 [14]): Active
- Activity [15]: Active
- Activity (HT-1080 [16]): 7.99%
- Activity (HT-1080 [17]): Active
